Where two headings read alike, the source gives them in different places.
Key:
[1] = test system: Phytophthora infestans; format: cell-based; details: PI, 48 hours
[2] = test system: Phytophthora infestans; test: whole plant or invertebrate; format: in vivo; details: for Percent Disease Control, foliar, tomato late blight: 150 ppm, protective; for pest or weed control at 150 ppm: Phytophthora infestans, in Solanum lycopersicum, foliar, read-out: Percent Disease Control, foliar, tomato late blight, 150 ppm, protective
[3] = test system: Fusarium solani; test: Soil treatment, bean root rot; format: in vivo; details: 150 ppm suspension, 3.8 mg active per pot; for pest or weed control at 150 ppm, 3.8 mg/pot: Fusarium solani, soil, 336 h, read-out: Percent Disease Control, seed/soil, bean root rot
Method in brief: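 Soil around bean seedlings was drenched with a 150 ppm suspension, giving 3.8 mg active per pot. Twenty-four hours later the soil was inoculated with minced Fusarium solani mycelium. Plants were kept in a greenhouse, and percent control of root rot damage was scored after fourteen days.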

[4] = test system: Pythium ultimum and Rhizoctonia solani; test: Soil/seed treatment, cucumber damping-off complex; format: in vivo; details: 150 ppm suspension, 3.75 to 3.8 mg per pot
Method: Containers having a volume of about 0.25 l. were 2/3 filled with topsoil and 25 cucumber c.v. [Straight Eight` seeds deposited on the soil surface of each pot. A suspension containing 150 ppm of the test chemical was poured over the seeds and into the soil in sufficient quantity to provide 3.75 to 3.8 mg active ingredient per pot.
Fungi used in this test were Pythium ultimum and Rhizoctonia solani. These fungi were each grown on potato dextrose agar for three to six days. The agar plus mycelium was then minced in a blender with water and 10 ml of the resulting slurry of minced mycelium poured over the seeds.
Following inoculation approximately 15 mm of topsoil was spread over the seeds, the container capped and incubated at 4° C. in darkness for three days, then transferred to a greenhouse (27° C.) for 10-14 days, at which time stand counts were made. Captan was used as a standard for comparison. Based on stand counts on Efficacy Index was calculated for each test chemical as follows: [formula]

[5] = test system: Uromyces phaseoli; details: in vivo
[6] = test system: Uromyces phaseoli; details: in vivo; remark: listed apart in the source
[7] = test system: Erysiphe polygoni; details: in vivo
[8] = test system: Cercospora beticola; details: in vivo
[9] = test system: Cercospora beticola; test: whole plant or invertebrate; details: in Beta vulgaris, foliar, 24 h, read-out: Percent Disease Control, curative, sugar beet leaf spot

Compound | Spore Germination Rating ([1]; 1.0 ppm) | Spore Germination Rating ([1]; 2.5 ppm) | Spore Germination Rating ([1]; 10 ppm) | Spore Germination Rating ([1]; 40 ppm) | Percent Disease Control, foliar, tomato late blight [2] [%] | Percent Disease Control, seed/soil, bean root rot [3] [%] | Efficacy Index, seed/soil, cucumber damping-off complex [4] | Percent Disease Control, foliar, bean rust [5] [%] | Percent Disease Control, curative, bean rust [6] [%] | Percent Disease Control, curative, bean powdery mildew [7] [%] | Percent Disease Control, curative, sugar beet leaf spot [8] [%] | pest or weed control at 150 ppm [2] [%] | pest or weed control at 150 ppm, 3.8 mg/pot [3] [%] | pest or weed control at 150 ppm [9] [%]
3-chloro-5-(bromophenoxy)-4H-1,2,6-thiadiazin-4-one [Compound 33] | 0 (0-10) | 0 (0-10) | 0 (0-10) | 0 (0-10) | 0 | 95 | 0 | 100 | 0 | 95 | 0 |  |  | 
3-chloro-5-[methylaminocarbonyloxy)phenoxyl]-4H-1,2,6-thiadiazin-4-one [Compound 36] | 4 (80-100) | 4 (80-100) | 4 (80-100) | 0 (0-10) | 90 |  | 13 | 100 | 0 | 0 |  |  |  | 
O=c1c(Cl)nsnc1Oc1ccccc1Br [Compound 34, 3-chloro-5-(2-bromophenoxy)-4H-1,2,6,-thiadiazin-4-one] | 4 (80-100) | 1 (10-40) | 0 (0-10) | 0 (0-10) |  |  |  |  |  |  |  | 0 | 0 | 0
CC(=O)Nc1cccc(Oc2nsnc(Cl)c2=O)c1 [Compound 42, 3-[(3-N--acetylamino)-phenoxy]-5-chloro-4H--1,2,6-thiadiazin-4-one] | 4 (80-100) | 4 (80-100) | 3 (60-80) | 0 (0-10) |  |  |  |  |  |  |  | 0 | 90 | 0
CC(=O)Nc1ccccc1Oc1nsnc(Cl)c1=O [Compound 43, 3-[(2-acetylamino)-phenoxy]-5-chloro-4H--1,2,6-thiadiazin-4-one] | 4 (80-100) | 4 (80-100) | 4 (80-100) | 2 (40-60) |  |  |  |  |  |  |  | 0 | 0 | 90
O=c1c(Cl)nsnc1Oc1cccc(C(F)(F)F)c1 [Compound 44, 3-chloro-5-[(3-trifluoromethyl)phenoxy]-4H--1,2,6-thiadiazin-4-one] | 2 (40-60) | 0 (0-10) | 0 (0-10) | 0 (0-10) |  |  |  |  |  |  |  | 0 | 90 | 0
O=C(O)Cc1ccccc1Oc1nsnc(Cl)c1=O [Compound 45, 3-(2-carboxymethylphenoxy)-5-chloro-4H--1,2,6-thiadiazin-4-one] | 4 (80-100) | 4 (80-100) | 0 (0-10) | 0 (0-10) |  |  |  |  |  |  |  | 0 | 90 | 90
CC(=O)c1ccc(Oc2nsnc(Cl)c2=O)cc1 [Compound 47, 3-(4-acetylphenoxy)-5-chloro-4H--1,2,6-thiadiazin-4-one] | 0 (0-10) | 0 (0-10) | 0 (0-10) | 0 (0-10) |  |  |  |  |  |  |  | 95 | 95 | 90
CC(=O)c1ccccc1Oc1nsnc(Cl)c1=O [Compound 49, 3-(2-acetylphenoxy)-5-chloro-4H--1,2,6-thiadiazin-4-one] | 3 (60-80) | 1 (10-40) | 1 (10-40) | 1 (10-40) |  |  |  |  |  |  |  | 90 | 0 | 0
O=C(O)c1ccc(Oc2nsnc(Cl)c2=O)cc1 [Compound 50, 3-(4-carboxyphenoxy)-5-chloro-4H--1,2,6-thiadiazin-4-one] | 4 (80-100) | 2 (40-60) | 0 (0-10) | 0 (0-10) |  |  |  |  |  |  |  | 0 | 0 | 50
Cc1cc(Oc2nsnc(Cl)c2=O)ccc1Cl [Compound 54, 3-chloro-5-(4-chloro-3-methylphenoxy)-4H--1,2,6-thiadiazin-4-one] | 1 (10-40) | 0 (0-10) | 0 (0-10) | 0 (0-10) |  |  |  |  |  |  |  | 0 | 0 | 0
Cc1cc(Cl)ccc1Oc1nsnc(Cl)c1=O [Compound 55, 3-chloro-5-(4-chloro-2-methylphenoxy)-4H--1,2,6-thiadiazin-4-one] | 1 (10-40) | 0 (0-10) | 0 (0-10) | 0 (0-10) |  |  |  |  |  |  |  | 90 | 0 | 95
Cc1ccc(Oc2nsnc(Cl)c2=O)c(Br)c1 [Compound 57, 3-[(2-bromo-4-methyl)-phenoxy]-5-chloro-4H--1,2,6-thiadiazin-4-one] | 4 (80-100) | 1 (10-40) | 0 (0-10) | 0 (0-10) |  |  |  |  |  |  |  | 0 | 0 | 90
Cc1cc(Cl)c(Oc2nsnc(Cl)c2=O)cc1C [Compound 58, 3-chloro-5-[(2-chloro-4,5-dimethyl)phenoxy]-4H--1,2,6-thiadiazin-4-one] | 3 (60-80) | 2 (40-60) | 0 (0-10) | 0 (0-10) |  |  |  |  |  |  |  | 0 | 0 | 0
Cc1cc(Oc2nsnc(Cl)c2=O)cc(C)c1Cl [Compound 59, 3-chloro-5-[(4-chloro-3,5-dimethyl)phenoxy]-4H--1,2,6-thiadiazin-4-one] | 4 (80-100) | 1 (10-40) | 1 (10-40) | 0 (0-10) |  |  |  |  |  |  |  | 0 | 0 | 0
Cc1cc(Oc2nsnc(Cl)c2=O)cc(C)c1Br [Compound 60, 3-[(4-bromo-3,5-dimethyl)-phenoxy]-5-chloro-4H--1,2,6-thiadiazin-4-one] | 4 (80-100) | 2 (40-60) | 1 (10-40) | 0 (0-10) |  |  |  |  |  |  |  | 0 | 0 | 0

Reference: patent US4450269A, “Mono-5-substituted-3-chloro-4H-1,2,6-thiadiazin-4-one antifungal agents” (FMC Corporation, priority 1980, dated 1984)
